The values that follow come from the supplement of paper PMC11208160.
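Also: IS621 recombinase and bridge RNA in Escherichia coli cells.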

The series in a line: recombinant barcode read abundance after kanamycin selection (control-corrected) (log10(CPM+1)); higher = more efficient recombination; sequences stand for … in AGTGCAGAGAAAATCGGCCAGTTTTCTCTGCCTGCAGTCCGCATGCCGT…AGATTTATGCAGCGGACTGCCTTTCTCCCAAAGTGATAAACCGGACAGTATCATGGACCGGTTTTCCCGGTAATCCGTATTTGCAAGGTTGGTTTCACT; site = the 11-nt target. As for the experimental part: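 Pooled E. coli target-specificity screen for the IS621 bridge recombinase. Each library plasmid pairs an 11-nt target (CT core) with a bridge RNA whose target-binding loop (9-nt LTG + 4-nt RTG) is reprogrammed; the rest of the 177-nt WT IS621 bridge RNA scaffold is fixed. The plasmid is co-electroporated with a WT donor plasmid; recombinase is induced with 0.1 mM IPTG and recombinants are selected on kanamycin. Recombinant barcodes are sequenced, converted to CPM, averaged over two biological replicates and corrected by the unselected control CPM. Molecule = full bridge RNA written as DNA: LTG = specificity nt 1-9, RTG = reverse complement of specificity nt 8-11, in the WT scaffold.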
Turning to “AACTTGACTTGGGTTCTAACCTGTTGCCT (site AACTTGACTAG)”, the “recombinant barcode read abundance (log10)” value came to 0.731.
For “AACTTGACTTGGGTTCTAACCTGTTGCCT (site AAGTTGACTAG)”, the “recombinant barcode read abundance (log10)” value came to 0.0706.
As for “AACTTGACTTGGGTTCTAACCTGTTGCCT (site AATTTGACTAG)”, the “recombinant barcode read abundance (log10)” value is 0.232.
With “AAGAACTCTTGGGTTCTAACCTGTTGCCG (site AAGAACTCTCG)” the figure was 2.1; with “AAGAACTCTTGGGTTCTAACCTGTTGCCG (site GTTTCAACTAC)”, 0.0172.
With “AAGATACCTTGGGTTCTAACCTGTTGCTG (site AAGATACCTAA)” the figure was 0.283.
As for “AAGATACCTTGGGTTCTAACCTGTTGCTG (site AAGATACCTCA)”, the “recombinant barcode read abundance (log10)” value was 1.76.
Then “AAGATATCTTGGGTTCTAACCTGTTGCCT (site AAGATATCTAG)”, with 1.86.
For “AAGATATCTTGGGTTCTAACCTGTTGCCT (site ACGATATCTAG)”, the “recombinant barcode read abundance (log10)” value was 0.119.
Then “AAGATATCTTGGGTTCTAACCTGTTGCCT (site AGGATATCTAG)”, with 0; and “AAGATATCTTGGGTTCTAACCTGTTGCCT (site ATGATATCTAG)”, with 0.0647; and “AAGCACCCTTGGGTTCTAACCTGTTGCAG (site AAGCACCCTCT)”, with 2.59.
With “AAGCACCCTTGGGTTCTAACCTGTTGCAG (site TAGCACTCTCT)” the figure was 0.311; with “AAGCACCCTTGGGTTCTAACCTGTTGCTG (site AAGCACCCTCA)”, 2.02; with “AAGCACCCTTGGGTTCTAACCTGTTGCTG (site CCTGCGACTGT)”, 0.276.
As to “AAGCCTACTTGGGTTCTAACCTGTTGCTA (site AAGCCTACTTA)”, the “recombinant barcode read abundance (log10)” value was 1.27.
With “AAGCCTACTTGGGTTCTAACCTGTTGCTA (site GAGCCTACTTA)” the figure was 0.0396.
For “AAGGCCTCTTGGGTTCTAACCTGTTGCAT (site AAGGCCTCTAT)”, the “recombinant barcode read abundance (log10)” value worked out at 2.93.
Turning to “AAGGCCTCTTGGGTTCTAACCTGTTGCAT (site AAGGCCTCTTG)”, the “recombinant barcode read abundance (log10)” value was determined as 0.247.
With “AAGGCTACTTGGGTTCTAACCTGTTGCCT (site AAGGCTACTAG)” the figure was 0.304; with “AAGGCTACTTGGGTTCTAACCTGTTGCCT (site AAGGCTTCTAG)”, 0.144; with “AAGGTACCTTGGGTTCTAACCTGTTGCGG (site AAGGTACCTCC)”, 2.69.
Then “AAGGTACCTTGGGTTCTAACCTGTTGCGG (site GTCACTACTAT)”, with 0.0994.
With “AAGGTCACTTGGGTTCTAACCTGTTGCCT (site AAGGTCACTAG)” the figure was 2.24; with “AAGGTCACTTGGGTTCTAACCTGTTGCCT (site ACGGTCACTAG)”, 0.816; with “AAGGTCACTTGGGTTCTAACCTGTTGCCT (site AGGGTCACTAG)”, 0.0802.
On to “AAGGTCACTTGGGTTCTAACCTGTTGCCT (site ATGGTCACTAG)”, for which the “recombinant barcode read abundance (log10)” value was 0.361.
Turning to “AAGGTCACTTGGGTTCTAACCTGTTGCTG (site AAGGTCACTCA)”, the “recombinant barcode read abundance (log10)” value stood at 2.52.
Then “AAGGTCACTTGGGTTCTAACCTGTTGCTG (site GTACATCCTAC)”, with 0.0968; and “AAGTCCACTTGGGTTCTAACCTGTTGCCT (site AAGTCCACTAG)”, with 0.934; and “AAGTCCACTTGGGTTCTAACCTGTTGCCT (site ATTTCCACTAG)”, with 0.027.
Then “AAGTCTCCTTGGGTTCTAACCTGTTGCAG (site AAGTCTCCTCT)”, with 0.174; and “AAGTCTCCTTGGGTTCTAACCTGTTGCAG (site GCAATATCTAG)”, with 0.116.
As for “AAGTCTCCTTGGGTTCTAACCTGTTGCCT (site AAGACTCCTAG)”, the “recombinant barcode read abundance (log10)” value turned out to be 0.134.
Then “AAGTCTCCTTGGGTTCTAACCTGTTGCCT (site AAGTCTCCTAG)”, with 0.64; and “AAGTGAGCTTGGGTTCTAACCTGTTGCAG (site AAGTGAGCTCT)”, with 2.69; and “AAGTGAGCTTGGGTTCTAACCTGTTGCAG (site AATAGAGCTCT)”, with 0.12.
With “AAGTGGACTTGGGTTCTAACCTGTTGCCT (site AAGTCGACTAG)” the figure was 0.121; with “AAGTGGACTTGGGTTCTAACCTGTTGCCT (site AAGTGGACTAG)”, 1.93.
For the sequence “AAGTTAGCTTGGGTTCTAACCTGTTGCGG (site AAGTTAGCTCC)”, the “recombinant barcode read abundance (log10)” value stood at 2.28.
Then “AAGTTAGCTTGGGTTCTAACCTGTTGCGG (site GGCAACTCTAG)”, with 0.108; and “AAGTTGACTTGGGTTCTAACCTGTTGCCT (site AAATTGACTAG)”, with 0.378.
Then “AAGTTGACTTGGGTTCTAACCTGTTGCCT (site AACTTGACTAG)”, with 0.248; and “AAGTTGACTTGGGTTCTAACCTGTTGCCT (site AAGTTGACTAG)”, with 1.57.
Turning to “AAGTTGACTTGGGTTCTAACCTGTTGCCT (site AATTTGACTAG)”, the “recombinant barcode read abundance (log10)” value was found to be 0.304.
As for “AATAACCCTTGGGTTCTAACCTGTTGCCT (site AATAACCCTAG)”, the “recombinant barcode read abundance (log10)” value was 1.2.
With “AATAACCCTTGGGTTCTAACCTGTTGCCT (site ACTAACCCTAG)” the figure was 0.145; with “AATAACCCTTGGGTTCTAACCTGTTGCCT (site AGTAACCCTAG)”, 0.146; with “AATAACCCTTGGGTTCTAACCTGTTGCCT (site ATTAACCCTAG)”, 0.0794.
As for “AATAGCTCTTGGGTTCTAACCTGTTGCCT (site AATAGCTCTAG)”, the “recombinant barcode read abundance (log10)” value was determined as 0.82.
Then “AATAGCTCTTGGGTTCTAACCTGTTGCCT (site CATAGCTCTAG)”, with 0.0982.
For the sequence “AATAGCTCTTGGGTTCTAACCTGTTGCCT (site GATAGCTCTAG)”, the “recombinant barcode read abundance (log10)” value was 0.166.
With “AATAGCTCTTGGGTTCTAACCTGTTGCCT (site TATAGCTCTAG)” the figure was 0.116; with “AATATCTCTTGGGTTCTAACCTGTTGCCA (site AATATCTCTTG)”, 0.278.
Then “AATATCTCTTGGGTTCTAACCTGTTGCCA (site CTACCTACTCC)”, with 0.144.
With “AATATGCCTTGGGTTCTAACCTGTTGCCT (site AATATGCCTAG)” the figure was 0.582; with “AATATGCCTTGGGTTCTAACCTGTTGCCT (site AATCTCCCTAG)”, 0.0372.
For “AATGCTTCTTGGGTTCTAACCTGTTGCCT (site AATGCTTCTAG)”, the “recombinant barcode read abundance (log10)” value came to 1.05.
With “AATGCTTCTTGGGTTCTAACCTGTTGCCT (site AATTGTTCTAG)” the figure was 0.167.
